# Assays:
# [1] = test system: Trypanosoma brucei rhodesiense; test: Antitrypanosomal activity against Trypanosoma brucei rhodesiense STIB 900 after 72 hrs by microplate alamar blue assay; type: functional, organism-based; settings: STIB 900, 72 h
# [2] = Selectivity index, Ratio of IC50 for L6 cells to IC50 for Trypanosoma brucei rhodesiense STIB 9; type: functional
# [3] = test system: Plasmodium falciparum; test: Antiplasmodial activity against chloroquine and pyrimethamine-resistant Plasmodium falciparum K1 after 48 hrs; type: functional, organism-based; settings: K1, 48 h
# [4] = test system: L6; test: Cytotoxicity against rat L6 cells after 72 hrs by microplate alamar blue assay; type: cell-based; settings: L6, 72 h
# [5] = Selectivity index, Ratio of IC50 for L6 cells to IC50 for Plasmodium falciparum K1; type: functional
Structure (SMILES),IC50 [1] [nM],Ratio IC50 [2],IC50 [3] [nM],IC50 [4] [nM],Ratio IC50 [5]
NC(=O)CN1CCC2(N3CCCCC3)CC(c3ccc(Cl)cc3)C1C(c1ccc(Cl)cc1)C2 (racemic),990,24,1570,23800,15.13
CN(C)C12CCN(CCN)C(C(c3ccc(Cl)cc3)C1)C(c1ccc(Cl)cc1)C2 (racemic),500,20.44,900,10200,11.36
Clc1ccc(C2CC3(N4CCCC4)CCNC2C(c2ccc(Cl)c(Cl)c2)C3)cc1Cl (racemic),150,45.8,280,6870,24.54
C[C@@H]1CC[C@H]2[C@@H](C)C(=O)O[C@@H]3O[C@@]4(C)CC[C@@H]1[C@]32OO4 [ARTEMISININ],–,–,6.4,–,–
NCCN1CCC2(N3CCCC3)CC(c3ccc(Cl)cc3)C1C(c1ccc(Cl)cc1)C2 (racemic),210,22.14,320,4650,14.53
CN(C)C12CCNC(C(c3cccc4ccccc34)C1)C(c1cccc3ccccc13)C2 (racemic),110,58.82,480,6470,13.48
CCOC(=O)CN1CCC2(N3CCCCC3)CC(c3ccc(Cl)cc3)C1C(c1ccc(Cl)cc1)C2 (racemic),2190,5.97,1010,13100,12.94
CN(C)C12CCNC(C(c3ccc(C(F)(F)F)cc3)C1)C(c1ccc(C(F)(F)F)cc1)C2 (racemic),80,118,850,9440,11.11
CN(C)C12CCNC(C(c3ccc(F)cc3)C1)C(c1ccc(F)cc1)C2 (racemic),440,422.7,890,186000,209
CN(C)C12CCNC(C(c3ccc(Cl)c(Cl)c3)C1)C(c1ccc(Cl)c(Cl)c1)C2 (racemic),90,71.56,400,6440,16.1
CN(C)C12CCN(CC(N)=O)C(C(c3ccc(Cl)cc3)C1)C(c1ccc(Cl)cc1)C2 (racemic),910,28.07,1110,25500,23.01
CN(C)C12CCNC(C(c3ccc(Br)cc3)C1)C(c1ccc(Br)cc1)C2 (racemic),87,103.9,340,9030,26.56
NCCN1CCC2(N3CCCCC3)CC(c3ccc(Cl)cc3)C1C(c1ccc(Cl)cc1)C2 (racemic),76,44.34,150,3370,22.47
OCCN1CCC2(N3CCCCC3)CC(c3ccc(Cl)cc3)C1C(c1ccc(Cl)cc1)C2 (racemic),670,14.46,700,9690,13.84
CCOC(=O)CN1CCC2(N(C)C)CC(c3ccc(Cl)cc3)C1C(c1ccc(Cl)cc1)C2 (racemic),1780,2.88,700,5120,7.31
Clc1ccc(C2CC3(N4CCCCC4)CCNC2C(c2ccc(Cl)c(Cl)c2)C3)cc1Cl (racemic),160,55.44,540,8870,16.43
Cc1ccc(C2CC3(N(C)C)CCNC2C(c2ccc(C)cc2)C3)cc1 (racemic),120,337.2,450,40500,89.91
NC(=O)CN1CCC2(N3CCCC3)CC(c3ccc(Cl)cc3)C1C(c1ccc(Cl)cc1)C2 (racemic),760,31.45,830,23900,28.8
CN(C)C12CCNC([C@H](c3ccccc3)C1)[C@H](c1ccccc1)C2,600,–,–,–,–
COc1ccc(C2CC3(N(C)C)CCNC2C(c2ccc(OC)cc2)C3)cc1 (racemic),670,174.7,2690,117000,43.52

# From ChEMBL document CHEMBL1150424, “Novel azabicyclo[3.2.2]nonane derivatives and their activities against Plasmodium falciparum K1 and Trypanosoma brucei rhodesiense” (Bioorg Med Chem, 2008)
